According to patent US5843908A, “Pradimicins l and fl, and derivatives thereof” (Bristol-Myers Squibb Company, priority 1990, dated 1998):
≈ marks a conversion by molar mass, not a printed value.

Key:
[1] = test system: Aspergillus fumigatus IAM2530; experiment: In vitro antifungal activity, serial agar dilution, Sabouraud dextrose agar (Table 4a); assay type: cell-based; conditions: 10^6 CFU/ml, 40-60 hours at 28° C.
Method: (§1) Representative compounds of the present invention were tested in vitro against various fungi by serial agar dilution method in either Sabouraud dextrose agar or yeast morphology agar containing 1/15 M phosphate buffer. Thus, approximately 0.003 ml of fungal suspension containing 10^6 -10^7 cells/ml was applied to the surface of agar plates containing the test antibiotic. The minimum inhibitory concentration (MIC) values for the test compounds were recorded after the cultures had been incubated for 40-60 hours at 28° C.
(§2) Medium: Sabouraud dextrose agar

[2] = test system: Trichophyton mentagrophytes D155; experiment: as above; assay type: cell-based; conditions: 10^6 CFU/ml, 40-60 hours at 28° C.
Method: as §1, §2

Mucor spinosus IF05317 = experiment: as above; assay type: cell-based; conditions: 10^6 CFU/ml, 40-60 hours at 28° C.
Method: as §1, §2

A. fumigatus IAM2034 = experiment: as above; assay type: cell-based; conditions: Aspergillus fumigatus, 10^6 CFU/ml, 40-60 hours at 28° C.
Method: as §1, §2

[3] = test system: Cryptococcus neoformans D49; experiment: as above; assay type: cell-based; conditions: 10^6 CFU/ml, 40-60 hours at 28° C.
Method: as §1, §2

[4] = test system: Fusarium moniliforme A2284; experiment: as above; assay type: cell-based; conditions: Fusarium verticillioides, 10^6 CFU/ml, 40-60 hours at 28° C.
Method: as §1, §2

T. mentagrophytes #4329 = experiment: as above; assay type: cell-based; conditions: Trichophyton mentagrophytes, 10^6 CFU/ml, 40-60 hours at 28° C.
Method: as §1, §2

[5] = test system: Blastomyces dermatitidis D40; experiment: as above; assay type: cell-based; conditions: 10^6 CFU/ml, 40-60 hours at 28° C.
Method: as §1, §2

[6] = test system: Petriellidium boydii IF08078; experiment: as above; assay type: cell-based; conditions: Scedosporium boydii, 10^6 CFU/ml, 40-60 hours at 28° C.
Method: as §1, §2

C. albicans A9540 = experiment: as above; assay type: cell-based; conditions: Candida albicans, 10^6 CFU/ml, 40-60 hours at 28° C.
Method: as §1, §2

C. neoformans IAM4514 = experiment: as above; assay type: cell-based; conditions: Cryptococcus neoformans, 10^6 CFU/ml, 40-60 hours at 28° C.
Method: as §1, §2

Candida albicans IAM4888 = experiment: as above; assay type: cell-based; conditions: 10^6 CFU/ml, 40-60 hours at 28° C.
Method: as §1, §2

[7] = test system: Sporothrix schenckii IF08158; experiment: as above; assay type: cell-based; conditions: 10^6 CFU/ml, 40-60 hours at 28° C.
Method: as §1, §2

[8] = test system: Candida albicans ATCC 38247 (polyene-R); experiment: In vitro antifungal activity, serial agar dilution, yeast morphology agar (Table 4b); assay type: cell-based; conditions: ATCC38247, 60 h
Method: as §1
(§3) ^1. Determined after incubation for 40 hours at 28° C.
(§4) (Trichophyton mentagrophytes: 60 hours, 28° C.).
(§5) ^2. Inoculum size 10^6 cells/ml (Trichophyton mentagrophytes:
(§6) 10^7 cells/ml) in yeast morphology agar containing 1/15 M phosphate

[9] = test system: Trichophyton mentagrophytes #4329; experiment: In vitro antifungal activity, serial agar dilution, yeast morphology agar (Tables 4b, 4c); assay type: cell-based; conditions: 1/15 M phosphate buffer, 10^7 cells/ml, 60 hours, 28° C.
Method: as §1, §3, §4, §5, §6
(§7) (Trichophyton mentaprophytes: 60 hours, 28° C.).

[10] = test system: Candida albicans 83-2-14 (Juntendo); experiment: as above; assay type: cell-based; conditions: 60 h, 1/15 M phosphate buffer, 10^6 cells/ml, 40 hours at 28° C.
Method: as §1, §3, §4, §5, §6, §7

Candida albicans A9540 = experiment: as above; assay type: cell-based; conditions: 60 h, 1/15 M phosphate buffer, 10^6 cells/ml, 40 hours at 28° C.
Method: as §1, §3, §4, §5, §6, §7

[11] = test system: Cryptococcus neoformans IAM 4514; experiment: as above; assay type: cell-based; conditions: IAM4514, 60 h, 1/15 M phosphate buffer, 10^6 cells/ml, 40 hours at 28° C.
Method: as §1, §3, §4, §5, §6, §7

[12] = test system: Aspergillus fumigatus IAM 2034; experiment: as above; assay type: cell-based; conditions: IAM2034, 60 h, 1/15 M phosphate buffer, 10^6 cells/ml, 40 hours at 28° C.
Method: as §1, §3, §4, §5, §6, §7

[13] = test system: Cryptococcus neoformans D49; experiment: as above; assay type: cell-based; conditions: 60 h, 1/15 M phosphate buffer, 10^6 cells/ml, 40 hours at 28° C.
Method: as §1, §3, §4, §5, §6, §7

[14] = test system: Saccharomyces cerevisiae ATCC 9763; experiment: as above; assay type: cell-based; conditions: ATCC9763, 60 h, 1/15 M phosphate buffer, 10^6 cells/ml, 40 hours at 28° C.
Method: as §1, §3, §4, §5, §6, §7

[15] = test system: Candida tropicalis IAM 10241; experiment: as above; assay type: cell-based; conditions: IAM10241, 60 h, Candida tropicalis IAM 10241 ("IAN 10241" in Table 4b), 1/15 M phosphate buffer, 10^6 cells/ml, 40 hours at 28° C.
Method: as §1, §3, §4, §5, §6, §7

[16] = test system: Candida albicans ATCC 32354 (B311); experiment: as above; assay type: cell-based; conditions: ATCC32354, 60 h, 1/15 M phosphate buffer, 10^6 cells/ml, 40 hours at 28° C.
Method: as §1, §3, §4, §5, §6, §7

[17] = test system: Candida tropicalis 85-8 (Kitasato); experiment: as above; assay type: cell-based; conditions: 60 h, 1/15 M phosphate buffer, 10^6 cells/ml, 40 hours at 28° C.
Method: as §1, §3, §4, §5, §6, §7

Solubility = assay type: physicochemical

Row | SMILES | MIC [1] [mg/L] | MIC [2] [mg/L] | MIC (Mucor spinosus IF05317) [mg/L] | MIC (A. fumigatus IAM2034) [mg/L] | MIC [3] [mg/L] | MIC [4] [mg/L] | MIC (T. mentagrophytes #4329) [mg/L] | MIC [5] [mg/L] | MIC [6] [mg/L] | MIC (C. albicans A9540) [mg/L] | MIC [9] [mg/L] | MIC [10] [mg/L] | MIC (Candida albicans A9540) [mg/L] | MIC [11] [mg/L] | MIC [12] [mg/L] | MIC [13] [mg/L] | MIC [14] [mg/L] | MIC [15] [mg/L] | MIC [16] [mg/L] | MIC [17] [mg/L] | also measured
1 | COc1cc(O)c2c(c1)C(=O)c1c(cc3c(c1O)-c1c(cc(C)c(C(=O)N[C@H](C)C(=O)O)c1O)[C@H](O[C@@H]1O[C@H](C)[C@H](N(C)C)[C@H](O[C@@H]4O[C@H](CO)[C@@H](O)[C@H](O)[C@H]4O)[C@H]1O)[C@H]3O)C2=O [N-Methyl Pradimicin L] | 6.3 (≈ 7.12 µM) | 25 (≈ 28.3 µM) | > 100 | 6.3 (≈ 7.12 µM) | 6.3 (≈ 7.12 µM) | 12.5 (≈ 14.1 µM) | 25 (≈ 28.3 µM) | 6.3 (≈ 7.12 µM) | 25 (≈ 28.3 µM) | 12.5 (≈ 14.1 µM) |  |  |  |  |  |  |  |  |  |  | MIC (C. neoformans IAM4514): 6.3 mg/L (≈ 7.12 µM); MIC (Candida albicans IAM4888): 12.5 mg/L (≈ 14.1 µM); MIC [7]: 1.6 mg/L (≈ 1.81 µM)
2 | CN[C@@H]1[C@H](O[C@@H]2O[C@H](CO)[C@@H](O)[C@H](O)[C@H]2O)[C@@H](O)[C@H](O[C@H]2c3cc(C)c(C(=O)N[C@H](CO)C(=O)O)c(O)c3-c3c(cc4c(c3O)C(=O)c3cc(OC)cc(O)c3C4=O)[C@@H]2O)O[C@@H]1C [Pradimicin FL, pradimicin FL] |  |  |  |  |  |  |  |  |  |  | 3.1 (≈ 3.5 µM) | 6.3 (≈ 7.1 µM) | 6.3 (≈ 7.1 µM) | 1.6 (≈ 1.8 µM) | 3.1 (≈ 3.5 µM) | 3.1 (≈ 3.5 µM) | 3.1 (≈ 3.5 µM) | 6.3 (≈ 7.1 µM) | 6.3 (≈ 7.1 µM) | 6.3 (≈ 7.1 µM) | MIC [8]: 3.1 mg/L (≈ 3.5 µM)
3 | CN[C@@H]1[C@H](O[C@@H]2O[C@H](CO)[C@@H](O)[C@H](O)[C@H]2O)[C@@H](O)[C@H](O[C@H]2c3cc(C)c(C(=O)N[C@H](C)C(=O)O)c(O)c3-c3c(cc4c(c3O)C(=O)c3cc(OC)cc(O)c3C4=O)[C@@H]2O)O[C@@H]1C [Pradimicin L, pradimicin L] | 3.1 (≈ 3.56 µM) | 6.3 (≈ 7.23 µM) | > 100 | 3.1 (≈ 3.56 µM) | 0.8 (≈ 0.919 µM) | 6.3 (≈ 7.23 µM) | 12.5 (≈ 14.4 µM) | 3.1 (≈ 3.56 µM) | 25 (≈ 28.7 µM) | 12.5 (≈ 14.4 µM) | 3.1 (≈ 3.56 µM) | 100 (≈ 115 µM) | 25 (≈ 28.7 µM) | 0.8 (≈ 0.919 µM) | 3.1 (≈ 3.56 µM) | 1.6 (≈ 1.84 µM) | 6.3 (≈ 7.23 µM) | 100 (≈ 115 µM) | 6.3 (≈ 7.23 µM) | > 100 | MIC (C. neoformans IAM4514): 0.8 mg/L (≈ 0.919 µM); MIC (Candida albicans IAM4888): 6.3 mg/L (≈ 7.23 µM); MIC [7]: 0.8 mg/L (≈ 0.919 µM); Solubility (Solubility; dimethyl sulfoxide, dimethyl-formamide, acidic or alkaline water): Soluble in dimethyl sulfoxide, dimethyl-formamide, and acidic or alkaline water; Solubility (Solubility; ethanol, methanol, and water): slightly soluble in ethanol, methanol, and water; MIC [8]: 3.1 mg/L (≈ 3.56 µM)
4 | CN[C@@H]1[C@H](O[C@@H]2OC[C@@H](O)[C@H](O)[C@H]2O)[C@@H](O)[C@H](O[C@H]2c3cc(C)c(C(=O)N[C@H](C)C(=O)O)c(O)c3-c3c(cc4c(c3O)C(=O)c3cc(OC)cc(O)c3C4=O)[C@@H]2O)O[C@@H]1C [Pradimicin A, pradimicin A, reference compound] | 1.6 (≈ 1.9 µM) | 1.6 (≈ 1.9 µM) | > 100 | 3.1 (≈ 3.69 µM) | 1.6 (≈ 1.9 µM) | 6.3 (≈ 7.49 µM) | 6.3 (≈ 7.49 µM) | 6.3 (≈ 7.49 µM) | 6.3 (≈ 7.49 µM) | 100 (≈ 119 µM) | 3.1 (≈ 3.69 µM) | 12.5 (≈ 14.9 µM) | 12.5 (≈ 14.9 µM) | 1.6 (≈ 1.9 µM) | 1.6 (≈ 1.9 µM) | 1.6 (≈ 1.9 µM) | 6.3 (≈ 7.49 µM) | > 100 | 6.3 (≈ 7.49 µM) | 12.5 (≈ 14.9 µM) | MIC (C. neoformans IAM4514): 1.6 mg/L (≈ 1.9 µM); MIC (Candida albicans IAM4888): 6.3 mg/L (≈ 7.49 µM); MIC [7]: 1.6 mg/L (≈ 1.9 µM); MIC [8]: 6.3 mg/L (≈ 7.49 µM)
5 | COc1cc(O)c2c(c1)C(=O)c1c(cc3c(c1O)-c1c(cc(C)c(C(=O)N[C@H](CO)C(=O)O)c1O)[C@H](O[C@@H]1O[C@H](C)[C@H](N(C)C)[C@H](O[C@@H]4O[C@H](CO)[C@@H](O)[C@H](O)[C@H]4O)[C@H]1O)[C@H]3O)C2=O [N-Methyl Pradimicin FL] |  |  |  |  |  |  |  |  |  |  | 6.3 (≈ 6.99 µM) | 6.3 (≈ 6.99 µM) | 6.3 (≈ 6.99 µM) | 6.3 (≈ 6.99 µM) | 6.3 (≈ 6.99 µM) | 6.3 (≈ 6.99 µM) | 3.1 (≈ 3.44 µM) | 12.5 (≈ 13.9 µM) | 6.3 (≈ 6.99 µM) | 12.5 (≈ 13.9 µM) | 
